Data as given in patent publication US20140113912A1, “TREATMENT AND MANAGEMENT OF CNS DISORDERS” (priority 2011, published 2014).
Entries after “also recorded” stand apart in the source; their conditions may differ.

Columns and labels:
732 biochemicals = assay: Global metabolomic profiling: number of biochemicals significantly changed; format: in vivo, human; conditions: Day 42; for number of biochemicals significantly decreased / number of biochemicals significantly increased: of 732 biochemicals; for share of biochemicals significantly changed / number of biochemicals whose serum levels were significantly changed: of a total of 732 biochemicals; for number of biochemicals whose serum levels were significantly changed: p≦0.05
Description: (§1) Blood samples were taken at 4 days and 6 weeks following treatment. Plasma samples were isolated from whole blood and used for global metabolomic profiling.
(§2) At the time of analysis, samples were thawed and extracts prepared according to a standard protocol, which is designed to remove protein, dislodge small molecules bound to protein or physically trapped in the precipitated protein matrix, and recover a wide range of chemically diverse metabolites. A separate aliquot of each experimental plasma sample was taken then pooled for the creation of “Client Matrix” (CMTRX) samples. These CMTRX samples were injected throughout the platform run and served as technical replicates, allowing variability in the quantitation of all consistently detected biochemicals to be determined and overall process variability and platform performance to be monitored. Extracts of all experimental and CMTRX samples were split for analysis on the GC/MS and LC/MS/MS platforms.
(§3) The CMTRX technical replicate samples were treated independently throughout the process as if they were study samples. All process samples (CMTRX, GROBs—a mixture of organic components used to assess GC column performance, process blanks, etc.) were spaced evenly among the injections for each day and all client samples were randomly distributed throughout each day's run. Data were collected over eight platform run days and thus, ‘block normalized’ by calculating the median values for each run-day block for each individual compound. […] Missing values (if any) were assumed to be below the level of detection for that biochemical with the instrumentation used and were imputed with the observed minimum for that particular biochemical.
Two parameters are typically evaluated when considering statistical significance, namely the p-value and the q-value. […] The q-value describes the false discovery rate; a low q-value (q≦0.10) is an indication of high confidence in a result. Because of the multiple testing occurring in the data sets produced by metabolomic studies, data is often evaluated for false positives.
(§4) Statistical analyses of the data were performed on natural log-transformed data to reduce the effect of any potential outliers in the data. T-test comparisons were calculated using the one or both of the statistical software analysis programs: Array Studio (Omicsoft, Inc) or ‘R’ from the Free Software Foundation, Inc.
(§5) For t-test comparisons, within each group: placebo, lurasidone and olanzapine, the early versus the late time point was compared (i.e., 4 days versus 6 weeks). In addition, both lurasidone and olanzapine were compared with placebo at the appropriate time point and then lurasidone was compared with olanzapine at both 4 days and 6 weeks.

glutamate = assay: Metabolomic analysis of plasma samples: glutamate level; format: in vivo, human
Description: as §1, §2, §3
A number of internal standards were added to each experimental and process standard sample just prior to injection into the mass spectrometers. A measure of the platform variability was determined by calculating the median relative standard deviation (RSD) for these internal standards. […] Because these standards were added to the samples immediately prior to injection into the instrument, this value reflects instrument variation. In addition, the median relative standard deviation (RSD) for the biochemicals that were consistently measured in the CMTRX represents the total variability within the process for the actual experimental samples and the variability in quantitation of the endogenous metabolites within these samples (Table 2).
Biochemical data were analyzed by ANOVA contrasts and a Two-way ANOVA.
as §4, §5

serotonin 5-HT1A = target: T1, serotonin 5-HT1A (Homo sapiens, UniProt P08908); conditions: reported; cited from earlier work
T1 sequence (P08908 1-422): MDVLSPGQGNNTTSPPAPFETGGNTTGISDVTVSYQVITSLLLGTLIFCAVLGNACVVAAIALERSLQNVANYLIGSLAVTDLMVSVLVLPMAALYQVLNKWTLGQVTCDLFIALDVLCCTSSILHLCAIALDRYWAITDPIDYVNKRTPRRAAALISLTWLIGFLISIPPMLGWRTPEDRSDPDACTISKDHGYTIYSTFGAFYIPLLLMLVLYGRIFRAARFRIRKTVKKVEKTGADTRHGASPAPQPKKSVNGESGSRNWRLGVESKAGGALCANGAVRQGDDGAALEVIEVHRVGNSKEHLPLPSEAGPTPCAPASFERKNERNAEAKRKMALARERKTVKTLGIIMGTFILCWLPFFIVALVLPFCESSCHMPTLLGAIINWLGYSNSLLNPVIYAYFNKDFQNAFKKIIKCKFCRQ

5-HT7 = 5-HT7 (Homo sapiens, UniProt P34969); conditions: reported; cited from earlier work
5-HT2A = 5-HT2A (Homo sapiens, UniProt P28223); conditions: reported; cited from earlier work
serine = assay: Metabolomic analysis: serine level; parameters: species or system human; conditions: in vivo
Description: as §1, §2
(§6) The CMTRX technical replicate samples were treated independently throughout the process as if they were study samples. All process samples (CMTRX, GROBs—a mixture of organic components used to assess GC column performance, process blanks, etc.) were spaced evenly among the injections for each day and all client samples were randomly distributed throughout each day's run. […]

glycine = assay: Metabolomic analysis: glycine level; parameters: species or system human; conditions: in vivo
Description: as §1, §2, §6

[1] = test system: positive and negative symptoms of schizophrenia; conditions: several placebo-controlled trials; cited from earlier work
dopamine D2 = dopamine D2 (Homo sapiens, UniProt P14416); conditions: reported; cited from earlier work
aspartate = assay: Metabolomic analysis: aspartate level; parameters: species or system human; conditions: in vivo
Description: as §1, §2, §6

[2] = test system: patient diagnosed schizophrenia; assay: PANSS scoring, 6-week double-blind treatment; format: in vivo, human; conditions: 6 weeks; treatment responders only; lurasidone 40 mg/d, olanzapine 15 mg/d, placebo; FIG. 1
Procedure: Positive and Negative Syndrome Scale (PANSS) was measured according to the procedures well-established in the art. Clinical interviews were conducted by qualified trained professionals. A patient diagnosed schizophrenia was rated from 1 to 7 on 30 different symptoms based in the interview. The 30 symptoms assessed were: (1) positive symptoms, i.e., delusions, conceptual disorganization, hallucinations, hyperactivity, grandiosity, suspiciousness/persecution and hostility; (2) negative symptoms, i.e., blunted affect, emotional withdrawal, poor rapport, passive/apathetic social withdrawal, difficulty in abstract thinking, lack of spontaneity and flow of conversation and stereotyped thinking; and (3) general psychopathology symptoms, i.e., somatic concern, anxiety, guilt feelings, tension, mannerism and posturing, depression, motor retardation, uncooperativeness, unusual thought content, disorientation, poor attention, lack of judgment and insight, disturbance of volition, poor impulse control, preoccupation and active social avoidance. […]
Prior to the baseline visit, subjects underwent a 3-7 day washout of their current antipsychotic medication and randomized to receive either lurasidone (40 mg per day), olanzapine (15 mg per day) or placebo for 6 weeks. Symptom improvement was assessed by the change in PANSS score (total and subscale scores) from baseline to study endpoint. […]

[3] = target: T2, noradrenaline α2C receptors (Homo sapiens, UniProt P18825); conditions: reported; cited from earlier work
T2 sequence (P18825 1-462): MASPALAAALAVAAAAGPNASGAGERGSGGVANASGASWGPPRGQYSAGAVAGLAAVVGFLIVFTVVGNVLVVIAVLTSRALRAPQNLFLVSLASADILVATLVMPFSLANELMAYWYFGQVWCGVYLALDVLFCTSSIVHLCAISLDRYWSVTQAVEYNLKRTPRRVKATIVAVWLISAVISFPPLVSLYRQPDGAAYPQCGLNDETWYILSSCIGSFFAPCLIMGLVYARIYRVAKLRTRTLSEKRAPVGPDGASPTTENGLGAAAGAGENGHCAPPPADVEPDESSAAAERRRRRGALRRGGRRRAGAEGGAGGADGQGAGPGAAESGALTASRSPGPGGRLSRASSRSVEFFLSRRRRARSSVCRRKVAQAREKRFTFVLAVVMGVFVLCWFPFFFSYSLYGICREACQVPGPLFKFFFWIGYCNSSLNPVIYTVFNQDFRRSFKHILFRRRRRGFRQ

muscarinic M1 receptors = target: T3, muscarinic M1 receptors (Homo sapiens, UniProt P11229); conditions: reported; cited from earlier work
T3 sequence (P11229 1-460): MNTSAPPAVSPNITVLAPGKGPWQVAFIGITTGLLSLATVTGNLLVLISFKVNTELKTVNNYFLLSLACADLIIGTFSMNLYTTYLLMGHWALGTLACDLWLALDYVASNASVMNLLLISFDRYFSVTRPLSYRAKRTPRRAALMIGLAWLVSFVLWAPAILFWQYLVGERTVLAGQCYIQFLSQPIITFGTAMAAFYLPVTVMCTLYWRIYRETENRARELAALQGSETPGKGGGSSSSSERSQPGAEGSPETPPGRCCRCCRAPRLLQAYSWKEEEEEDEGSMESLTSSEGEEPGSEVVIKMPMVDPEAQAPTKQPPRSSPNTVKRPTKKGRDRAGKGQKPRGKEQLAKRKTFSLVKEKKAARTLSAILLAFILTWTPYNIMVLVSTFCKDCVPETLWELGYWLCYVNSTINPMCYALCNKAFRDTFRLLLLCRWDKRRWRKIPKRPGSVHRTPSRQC

histamine H1 = histamine H1 (Homo sapiens, UniProt P35367); conditions: reported; cited from earlier work
[4] = Total Sample of treatment responders, lurasidone 40 mg/d, olanzapine 15 mg/d, plasma
[5] = subgroup PANSS Negative Change at Week 6 ≦median change score
[6] = subgroup PANSS Positive Change at Week 6 >median change score
[7] = subgroup PANSS Positive Change at Week 6 ≦median change score
[8] = subgroup PANSS Total Change at Week 6 >median change score
[9] = subgroup PANSS Total Change at Week 6 ≦median change score

5-HT2A, sequence (P28223 whole entry, species assumed): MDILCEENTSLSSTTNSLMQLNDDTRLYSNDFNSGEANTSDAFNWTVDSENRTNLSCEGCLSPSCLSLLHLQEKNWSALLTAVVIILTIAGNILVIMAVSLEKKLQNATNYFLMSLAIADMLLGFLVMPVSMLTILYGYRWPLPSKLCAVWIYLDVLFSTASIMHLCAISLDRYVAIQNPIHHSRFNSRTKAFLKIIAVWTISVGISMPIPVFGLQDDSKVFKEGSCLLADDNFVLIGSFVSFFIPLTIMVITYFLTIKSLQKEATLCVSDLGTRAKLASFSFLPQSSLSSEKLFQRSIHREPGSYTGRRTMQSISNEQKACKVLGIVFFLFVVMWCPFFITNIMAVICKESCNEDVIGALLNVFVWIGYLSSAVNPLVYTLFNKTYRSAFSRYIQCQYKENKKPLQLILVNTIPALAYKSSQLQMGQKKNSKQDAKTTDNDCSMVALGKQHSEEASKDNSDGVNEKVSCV
5-HT7, sequence (P34969 whole entry, species assumed): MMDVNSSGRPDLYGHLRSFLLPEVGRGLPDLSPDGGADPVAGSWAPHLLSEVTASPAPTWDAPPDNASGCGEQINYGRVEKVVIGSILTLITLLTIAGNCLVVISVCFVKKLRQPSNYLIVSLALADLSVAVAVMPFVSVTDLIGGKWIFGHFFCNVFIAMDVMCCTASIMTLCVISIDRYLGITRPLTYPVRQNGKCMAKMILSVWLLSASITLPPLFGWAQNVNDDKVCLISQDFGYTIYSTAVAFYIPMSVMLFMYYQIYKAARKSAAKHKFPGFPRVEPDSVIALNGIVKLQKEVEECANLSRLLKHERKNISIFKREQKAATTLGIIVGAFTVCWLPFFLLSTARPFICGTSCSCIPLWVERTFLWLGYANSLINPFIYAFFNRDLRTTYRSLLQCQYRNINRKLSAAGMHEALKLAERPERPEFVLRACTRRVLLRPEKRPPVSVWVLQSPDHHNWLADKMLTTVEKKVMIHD
dopamine D2, sequence (P14416 whole entry): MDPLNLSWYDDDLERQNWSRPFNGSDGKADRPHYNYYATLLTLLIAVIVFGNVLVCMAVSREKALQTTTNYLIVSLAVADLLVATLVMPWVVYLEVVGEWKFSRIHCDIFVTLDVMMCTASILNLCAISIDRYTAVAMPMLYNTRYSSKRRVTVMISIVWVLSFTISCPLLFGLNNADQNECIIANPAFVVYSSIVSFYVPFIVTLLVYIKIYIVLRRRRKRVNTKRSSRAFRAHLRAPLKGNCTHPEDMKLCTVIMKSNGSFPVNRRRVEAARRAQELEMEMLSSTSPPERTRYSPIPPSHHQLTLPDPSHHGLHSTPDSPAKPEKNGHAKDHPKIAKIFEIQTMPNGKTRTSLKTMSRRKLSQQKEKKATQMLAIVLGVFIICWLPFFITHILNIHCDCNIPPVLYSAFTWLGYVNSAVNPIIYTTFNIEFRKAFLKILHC
histamine H1, sequence (P35367 whole entry): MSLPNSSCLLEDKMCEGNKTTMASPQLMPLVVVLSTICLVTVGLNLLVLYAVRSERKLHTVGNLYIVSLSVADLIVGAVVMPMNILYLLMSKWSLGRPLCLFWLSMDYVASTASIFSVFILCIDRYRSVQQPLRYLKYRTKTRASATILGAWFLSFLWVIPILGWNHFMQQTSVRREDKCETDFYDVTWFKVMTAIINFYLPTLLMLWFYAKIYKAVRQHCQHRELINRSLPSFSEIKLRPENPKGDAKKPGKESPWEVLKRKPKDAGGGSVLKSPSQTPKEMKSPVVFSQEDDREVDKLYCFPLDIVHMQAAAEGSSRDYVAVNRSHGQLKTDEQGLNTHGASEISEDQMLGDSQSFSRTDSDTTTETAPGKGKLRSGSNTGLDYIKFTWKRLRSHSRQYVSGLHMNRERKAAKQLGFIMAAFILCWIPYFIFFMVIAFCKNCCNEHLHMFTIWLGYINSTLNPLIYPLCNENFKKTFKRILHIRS

SMILES	number of biochemicals significantly decreased (732 biochemicals)	number of biochemicals significantly increased (732 biochemicals)	share of biochemicals significantly changed (732 biochemicals)	number of biochemicals whose serum levels were significantly changed (732 biochemicals)	Glutamate Levels at Week 6, mean (SD) (glutamate; [4])	Glutamate Levels at Week 6, mean (SD) (glutamate; [5])	Glutamate Levels at Week 6, mean (SD) (glutamate; [6])	Glutamate Levels at Week 6, mean (SD) (glutamate; [7])	Glutamate Levels at Week 6, mean (SD) (glutamate; [8])	Glutamate Levels at Week 6, mean (SD) (glutamate; [9])	further results
Cc1cc2c(s1)Nc1ccccc1N=C2N1CCN(C)CC1 [Olanzapine, olanzapine]	46	54	14%	100	1.00 (0.24)	1.03 (0.23)	1.02 (0.27)	0.98 (0.22)	1.01 (0.27)	0.99 (0.26)	Glutamate Levels at Week 6, mean (SD) (glutamate; subgroup PANSS Negative Change at Week 6 >median change score, *lurasidone vs. olanzapine P = 0.014, vs placebo P = 0.025): 0.97 (0.26)
O=C1[C@@H]2[C@H]3CC[C@H](C3)[C@@H]2C(=O)N1C[C@@H]1CCCC[C@H]1CN1CCN(c2nsc3ccccc23)CC1 [Lurasidone]	14	11	3%	25	1.12 (0.34)	1.00 (0.28)	1.14 (0.41)	1.09 (0.23)	1.13 (0.38)	1.09 (0.27)	affinity for serotonin 5-HT1A (serotonin 5-HT1A): high affinity; also recorded: moderate affinity; affinity for 5-HT7 (5-HT7): high affinity; affinity for 5-HT2A (5-HT2A): high affinity; level of serine upon treatment (serine): increased; level of glycine upon treatment (glycine): increased; ameliorating the positive and negative symptoms of schizophrenia [1]: effective; affinity for dopamine D2 (dopamine D2): high affinity; level of aspartate upon treatment (aspartate): increased; improvement in PANSS total, positive and negative subscores across treatment groups [2]: comparable; affinity for noradrenaline α2C receptors [3]: high affinity; affinity for muscarinic M1 receptors (muscarinic M1 receptors): minimal to no affinity; affinity for histamine H1 (histamine H1): minimal to no affinity; overall glutamate level compared with the placebo group (glutamate; days 4 and weeks 6, treatment responders, FIG. 2): significantly greater; glutamate level in responders with high improvement in negative symptoms compared with other responder groups (glutamate; week 6, PANSS negative change above median, FIG. 3): significantly higher increase; also recorded: significantly higher than all other responder groups; relation between levels of glutamate and change in PANSS negative subscore (glutamate; week 6, scatterplot FIG. 4): proportional
